Values of other authors, collected in patent US8476466B2 (priority 2008, dated 2013).

System: mice
Details: mouse, in vivo

Compound | 50% lethal dose (LD50, in mice) [mg/kg]
C[As+](C)(C)CC(=O)[O-] [arsenobetaine] | 10000
arsenic acid | 14 to 18
